Here are results for eleven compounds from patent US20120208776A1 (priority 2002, published 2012).

Read-outs that look alike come from different tables or passages of the source.

Data set [1] relates to MDA-MB-453 cells. Description: Cell-cycle analysis by DNA flow cytometry. Particulars: 48 hrs. In kind it is cell-based, human. The procedure: (§1) Synchrony: To synchronize the cells, 3×10^5 cells were plated onto 10 cm dishes and grown for 2 days in DMEM supplemented with 10% fetal bovine serum.
(§2) After incubation for 1-3 days, the supernatant was collected, and the cells were trypsinized, collected, and washed with phosphate buffered saline (PBS) containing 5% FBS. Cell pellets were re-suspended in 1 ml of PBS plus 5% FBS. Thereafter, 5 ml of 70% ethanol were added drop-wise, while vortexing the tube, and the mixture was stored at 4° C. Cells were centrifuged, washed with PBS plus 5% FBS, and re-suspended in 400 μl of propidium iodide (0.1 mg/ml) (Sigma Chemical Co.). 400 μl (2 mg/ml) of RNase (Sigma Chemical Co.) were added, and the cells were incubated in the dark at room temperature for 30 min.
(A flow cytometer gives signals particle by particle.)

For data set [2], the system named is MCF7 cells. Kind of data set: Cell-cycle analysis by DNA flow cytometry. In kind it is cell-based, human. Particulars: about 40 μg/ml. The method, then:
as §1, §2

Data set [3] has as its system MCF7 cells. Description: Cell proliferation, cell count (Coulter Counter). Format: cell-based, human. Conditions: for IC50: MCF7 cells, 96 h.
Data set [4] relates to MDA-MB-453 cells. Kind of data set: Cell proliferation, cell count (Coulter Counter). Conditions: MDA-MB-453 (FIG. 10).
Protocol: For the cell count assay, breast cancer cells were seeded, in triplicate, at 2×10^4 cells per well, in 24- or 96-well plates.
(§3) For the Coulter counter assay, cells were seeded at 2×10^4 cells per well in 24 well plates (0.875 cm diameter) as described previously. […] Control and treated cells were compared using the student's t-test (p<0.05). For cell cycle analysis the cells were plated (3×10^5) onto 6 cm dishes and allowed to attach for 24 hours. […] After 24 hours the cells were analyzed by DNA flow cytometry, as described previously.
Data set [5] deals with MDA-MB-453 cells. Description: Combination with chemotherapy agents, cell count, combination index (CI). In kind it is cell-based, human.
Data set [6] deals with MDA-MB-453 cells. Kind of data set: Combination of agents, MTT assay, combination index. The method, then:
Calculating the Combination Index. To determine the Combination Index (CI), 1) the Na^+-K^+-ATPase enzyme or 2) MDA-MB-453 cells were exposed to all combinations of 3, 4 or 5 concentrations of each of the agents tested and a solvent control. […] The results of the enzymatic assay of ATPase or MTT assay were analyzed for possible synergistic effects using the median effect principle. Variable ratios of drugs were employed and mutually exclusive equations were assumed.
Calculating the Combination Index.
The simvastatin was obtained from Sigma of St. Louis, Mo. The concentrations tested in the present example were 0, 0.2, 2, 5, and 20 μg/ml actein and 0, 0.8, 4, 20 and 40 μg/ml simvastatin.
(Formazan colour is commonly taken as a measure of viable cells.)

Data set [7] addresses NTPase/helicase of hepatitis C virus (Hepatitis C virus genotype 1a, UniProt P27958). Conditions: competitive inhibition of ATP binding; cited from earlier work.
For the next data set, the system named is Na^+-K^+-ATPase. Description: Enzymatic assay of adenosine 5′-triphosphatase. Format: biochemical. Conditions: 20 μM. The method, then: Enzymatic assay of adenosine 5′-triphosphatase. The enzymatic assay of ATPase (adenosine 5′-triphosphatase, EC 3.6.1.3) followed the Sigma Prod. […] [P] was determined by the Taussky-Shorr method.
Data set [8] deals with MDA-MB-453 cells. Description: MTT assay, 96 hours. In kind it is cell-based, human. Conditions: Homo sapiens, MTT, 96 h, read-out: IC50.
Protocol: as §3
[9] abbreviates: value in parentheses, read-out: IC50.

Sequence of NTPase/helicase of hepatitis C virus (P27958 1203-1364): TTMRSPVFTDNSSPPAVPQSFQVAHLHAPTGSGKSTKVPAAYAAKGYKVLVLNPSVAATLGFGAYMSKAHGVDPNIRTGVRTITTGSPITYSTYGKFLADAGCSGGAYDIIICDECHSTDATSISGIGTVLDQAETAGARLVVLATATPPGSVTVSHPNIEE

For the compound “25-acetyl-7,8-didehydrocimigenol 3-O-β-D-xylopyranoside”, in “Solubility (observation)”, the solubility result is reported as “sufficiently soluble”.

On to `O=c1[nH]cc(F)c(=O)[nH]1` [5-FU, 5-fluorouracil, reference compound], for which, in the data set with MDA-MB-453 cells [1] ((c) 5-FU 0.02 μg/mL), the “G1 (%)” value was determined as 28.9%, the “G2/M (%)” value is reported as 20.3%, the “S (%)” value is 47.6% and the “Sub G1 (%)” value was found to be 3. %.

Consider `CC(=O)O[C@@H]1C[C@@]23C[C@@]24CC[C@H](O[C@@H]2OC[C@@H](O)[C@H](O)[C@H]2O)C(C)(C)[C@@H]4CC[C@H]3[C@]2(C)C[C@@H]3O[C@@]4(C[C@@H](C)[C@@H]3[C@@]12C)OC[C@@]1(C)O[C@@H]41` [23-epi-26-deoxyactein], for which, in the data set on MCF7 cells [2], the cell-cycle arrest result is listed as “induced cell-cycle arrest at G1”. For the same compound, the half-inhibitory concentration (IC50) (in general, the concentration needed to halve the response being measured) turned out to be 21 µg/mL with MCF7 cells [3] and 32 µM in the data set on MCF7 cells [3] (setting [9]).

Regarding `C[C@@H]1C[C@@H]2O[C@@]3(O[C@@H]2C(C)(C)O)[C@H](O)[C@@]2(C)[C@@H]4CC[C@H]5C(C)(C)[C@@H](O)CC[C@@]56C[C@@]46CC[C@]2(C)[C@@H]13` [Cimigenol, cimigenol], the “effect on the growth of human breast cancer cells” value with MDA-MB-453 cells [4] was “less active than cimigenol glycoside”.

For the compound `COc1cccc2c1C(=O)c1c(O)c3c(c(O)c1C2=O)C[C@@](O)(C(=O)CO)C[C@@H]3O[C@H]1C[C@H](N)[C@H](O)[C@H](C)O1` [Doxorubicin, doxorubicin, reference compound], in the data set on MDA-MB-453 cells [1] ((c) Doxorubicin 0.1 μg/mL), the “G1 (%)” value was 30.1%, the “G2/M (%)” value is 61.7%, the “S (%)” value is 5.6% and the “Sub G1 (%)” value came out at 2.5%.

Regarding `CC(=O)O[C@@H]1C[C@@]23C[C@@]24CC[C@H](O[C@@H]2OC[C@@H](O)[C@H](O)[C@H]2O)C(C)(C)[C@@H]4CC=C3[C@]2(C)C[C@@H]3O[C@@]4(O)[C@H](OC(C)(C)[C@H]4O)[C@@H](C)[C@@H]3[C@@]12C` [cimiracemoside A], the cell-cycle arrest entry with MCF7 cells [2] was “induced cell-cycle arrest at G1”. In addition, the results for the half-inhibitory concentration (IC50) in the data set on MCF7 cells [3] and in the data set with MCF7 cells [3] (setting [9]) were 41 µg/mL and 61 µM, respectively.

With `COc1cc(/C=C/C(=O)O)ccc1O` [ferulic, ferulic acid], the “effect on the growth of MCF7 cells” value with MCF7 cells [3] is “active in suppressing the growth”.

Turning to `COc1ccc(/C=C/C(=O)O)cc1O` [isoferulic, isoferulic acid], the “effect on the growth of MCF7 cells” value in the data set on MCF7 cells [3] is reported as “active in suppressing the growth”.

Turning to `CC(=O)O[C@H]1C(=O)[C@@]2(C)[C@H]([C@H](OC(=O)c3ccccc3)[C@]3(O)C[C@H](OC(=O)[C@H](O)[C@@H](NC(=O)c4ccccc4)c4ccccc4)C(C)=C1C3(C)C)[C@]1(OC(C)=O)CO[C@@H]1C[C@@H]2O` [paclitaxel, reference compound], in the data set with MDA-MB-453 cells [1] ((b) Taxol 1 nM), the “G1 (%)” value was found to be 71.0%, the “G2/M (%)” value is given as 17.0%, the “S (%)” value is recorded as 10.8% and the “Sub G1 (%)” value came out at 1.0%. In the data set with MDA-MB-453 cells [5] (tax 1), the “number of viable cells, average” value was 118624. Moreover, the “number of viable cells, average” value in the data set with MDA-MB-453 cells [5] (tax 4) was found to be 37060.67. Also, in the data set on MDA-MB-453 cells [5] (tax .25 (nM)), the “number of viable cells, average” value worked out at 198416.3. Moreover, the cell survival in the data set on MDA-MB-453 cells [6] (paclitaxel 1 nM alone) is listed as 63.2%. In [7], the IC50 was ~16 µM. Also, in the data set with Na^+-K^+-ATPase, the “percent inhibition of in vitro Na^+-K^+-ATPase activity” value worked out at 21.7%.

Take `CCC(C)(C)C(=O)O[C@H]1C[C@@H](C)C=C2C=C[C@H](C)[C@H](CC[C@@H]3C[C@@H](O)CC(=O)O3)[C@H]21` [simvastatin]: the viability at 20 µg/mL in the data set on MDA-MB-453 cells [6] (Homo sapiens, MDA-MB-453, read-out: percent viable cells) came to 83.1%. For the same compound, the cell survival in the data set on MDA-MB-453 cells [6] (simvastatin 40 ug/ml alone) is on record as 58.2%. For the same compound, the IC50 in the data set with MDA-MB-453 cells [8] was 21.5 µM.

On to cimifugoside, for which the IC50 with MCF7 cells [3] was found to be 22 µg/mL; in the data set with MCF7 cells [3] (setting [9]), 36 µM.
